# Test results as given in US20260184663A1, “INDENE COMPOUNDS, PHARMACEUTICAL COMPOSITIONS THEREOF, AND THEIR THERAPEUTIC APPLICATIONS” (NucMito Pharmaceuticals co. Ltd., priority 2022, published 2026).
# Key:
# Format in all cases: cell-based
# [1] = tested on: HeLa (cervical cancer); assay: Antiproliferative activity (CCK-8 cell viability), HeLa; conditions: Homo sapiens, 72 h, read-out: Antiproliferative activity in cancerous cells, HELA (inhibition of cell growth); for inhibition at 3.3 µM: Compound concentration: 3.3 μM; for inhibition at 10 µM: Compound concentration: 10 μM; for inhibition at 30 µM: Compound concentration: 30 μM
# Experimental: (§1) The antiproliferative activity of a compound was determined in the following cell lines: MDA-MB-231 (breast cancer), HepG2 (liver cancer), SW480 (colon cancer), B16F10 (malignant melanoma), A431 (epidermoid carcinoma), A549 (lung adenocarcinoma), and HeLa (cervical cancer). MDA-MB-231, HepG2, SW480, B16F10, and A431 cells were cultured in Dulbecco's modified Eagle's medium (DMEM) containing 10% fetal bovine serum (FBS). HeLa cells were cultured in MEM/EBSS (MEM) containing 10% FBS. A549 cells were maintained in Kaighn's modification of Ham's F-12 medium containing 10% FBS. A Cell Counting Kit-8 (CCK-8) was used to measure the cell viability of different cells following treatment with the compound.
# (§2) Briefly cells were seeded in a 96-well plate at a density of 2,000-5,000 cells/well. Following attachment, the cells were treated with the compound in media at a compound concentration of 3.3 μM, 10 μM, or 30 μM. After the cells were incubated at 37° C. for 72 h, a CCK-8 solution (10 μL) was added to each well. After incubation at 37° C. for 4 h, the absorbance value of each well was determined using a multi-well plate reader at 450 nm. The wells treated with DMSO were taken as a vehicle control. Data were also obtained similarly for all the replicates and the percentage of cell viability was determined with respect to the DMSO-treated cells. The results are summarized in Tables 2-4, wherein A represents no less than […] of cell growth; B represents no less than 30% but less than 50% inhibition of cell growth; and C represents less than 30% inhibition of cell growth.
# [2] = tested on: A431 (epidermoid carcinoma); assay: Antiproliferative activity (CCK-8 cell viability), A431; conditions: Homo sapiens, 72 h, read-out: Antiproliferative activity in cancerous cells, A431 (inhibition of cell growth); for inhibition at 3.3 µM: A-431, Compound concentration: 3.3 μM; for inhibition at 10 µM: A-431, Compound concentration: 10 μM; for inhibition at 30 µM: A-431, Compound concentration: 30 μM
# Experimental: as §1, §2
# [3] = tested on: HepG2 (liver cancer); assay: Antiproliferative activity (CCK-8 cell viability), HepG2; conditions: Homo sapiens, 72 h, read-out: Antiproliferative activity in cancerous cells, HepG2 (inhibition of cell growth); for inhibition at 3.3 µM: Compound concentration: 3.3 μM; for inhibition at 10 µM: Compound concentration: 10 μM; for inhibition at 30 µM: Compound concentration: 30 μM
# Experimental: as §1, §2
# [4] = tested on: B16F10 (malignant melanoma); assay: Antiproliferative activity (CCK-8 cell viability), B16F10; conditions: Mus musculus, 72 h, read-out: Antiproliferative activity in cancerous cells, B16F10 (inhibition of cell growth); for inhibition at 3.3 µM: B16-F10, Compound concentration: 3.3 μM; for inhibition at 10 µM: B16-F10, Compound concentration: 10 μM; for inhibition at 30 µM: B16-F10, Compound concentration: 30 μM
# Experimental: as §1, §2
# [5] = tested on: MDA-MB-231 (breast cancer); assay: Antiproliferative activity (CCK-8 cell viability), MDA-MB-231; conditions: Homo sapiens, 72 h, read-out: Antiproliferative activity in cancerous cells, MDA-MB-231 (inhibition of cell growth); for inhibition at 3.3 µM: Compound concentration: 3.3 μM; for inhibition at 10 µM: Compound concentration: 10 μM; for inhibition at 30 µM: Compound concentration: 30 μM
# Experimental: as §1, §2
# [6] = tested on: SW480 (colon cancer); assay: Antiproliferative activity (CCK-8 cell viability), SW480; conditions: Homo sapiens, 72 h, read-out: Antiproliferative activity in cancerous cells, SW480 (inhibition of cell growth); for inhibition at 3.3 µM: Compound concentration: 3.3 μM; for inhibition at 10 µM: Compound concentration: 10 μM; for inhibition at 30 µM: Compound concentration: 30 μM
# Experimental: as §1, §2
# [7] = tested on: A549 (lung adenocarcinoma); assay: Antiproliferative activity (CCK-8 cell viability), A549; conditions: Homo sapiens, 72 h, read-out: Antiproliferative activity in cancerous cells, A549 (inhibition of cell growth); for inhibition at 3.3 µM: Compound concentration: 3.3 μM; for inhibition at 10 µM: Compound concentration: 10 μM; for inhibition at 30 µM: Compound concentration: 30 μM
# Experimental: as §1, §2
Structure (SMILES),inhibition at 3.3 µM [1] [%],inhibition at 10 µM [1] [%],inhibition at 3.3 µM [2] [%],inhibition at 10 µM [2] [%],inhibition at 3.3 µM [3] [%],inhibition at 10 µM [3] [%],inhibition at 3.3 µM [4] [%],inhibition at 10 µM [4] [%],inhibition at 3.3 µM [5] [%],inhibition at 10 µM [5] [%],inhibition at 3.3 µM [6] [%],inhibition at 10 µM [6] [%],inhibition at 3.3 µM [7] [%],inhibition at 10 µM [7] [%],inhibition at 30 µM [1] [%],inhibition at 30 µM [2] [%],inhibition at 30 µM [3] [%],inhibition at 30 µM [4] [%],inhibition at 30 µM [5] [%],inhibition at 30 µM [6] [%],further results
"CC1=C(CC(=O)O)c2cc(F)ccc2/C1=C\c1ccc(CCOc2ccc(Cl)cc2)cc1 [B34, (Z)-2-(1-(4-(2-(4-Chlorophenoxy)ethyl)benzylidene)-5-fluoro-2-methyl-1H-inden-3-yl)acetic acid]",< 30,≥ 50,≥ 50,≥ 50,< 30,≥ 50,30 to 50,≥ 50,< 30,< 30,< 30,≥ 50,30 to 50,≥ 50,–,–,–,–,–,–,–
"CC1=C(CC(=O)O)c2cc(Br)ccc2/C1=C/c1ccc(Oc2ccc(Cl)cc2)cc1 [E27, (E)-2-(5-Bromo-1-(4-(4-chlorophenoxy)benzylidene)-2-methyl-1H-inden-3-yl)acetic acid]",≥ 50,≥ 50,≥ 50,≥ 50,< 30,≥ 50,≥ 50,≥ 50,≥ 50,≥ 50,< 30,30 to 50,< 30,≥ 50,≥ 50,≥ 50,≥ 50,≥ 50,≥ 50,≥ 50,inhibition at 30 µM [7]: ≥ 50%
"CC1=C(CC(=O)O)c2cc(F)ccc2/C1=C\c1cccc(C(=O)c2ccccc2)c1 [C304, (Z)-2-(1-(3-Benzoylbenzylidene)-5-fluoro-2-methyl-1H-inden-3-yl)acetic acid]",30 to 50,≥ 50,< 30,30 to 50,30 to 50,≥ 50,< 30,≥ 50,< 30,30 to 50,< 30,≥ 50,< 30,≥ 50,≥ 50,≥ 50,≥ 50,≥ 50,≥ 50,≥ 50,inhibition at 30 µM [7]: ≥ 50%
"CC1=C(CC(=O)O)c2cc(F)ccc2/C1=C\c1ccc(Oc2ccc(Cl)nc2)cc1 [C65, (Z)-2-(1-(4-((6-Chloropyridin-3-yl)oxy)benzylidene)-5-fluoro-2-methyl-1H-inden-3-yl)acetic acid]",30 to 50,≥ 50,≥ 50,≥ 50,30 to 50,≥ 50,30 to 50,≥ 50,< 30,< 30,< 30,< 30,< 30,≥ 50,–,–,–,–,–,–,–
"CCc1ccc2c(c1)C(CC(=O)O)=C(C)/C2=C/c1ccc(COc2ccc(Cl)cc2)cc1 [B56, (Z)-2-(1-(4-((4-Chlorophenoxy)methyl)benzylidene)-5-ethyl-2-methyl-1H-inden-3-yl)acetic acid]",≥ 50,≥ 50,≥ 50,≥ 50,≥ 50,≥ 50,30 to 50,≥ 50,< 30,30 to 50,30 to 50,≥ 50,30 to 50,≥ 50,–,–,–,–,–,–,–
"CC1=C(CC(=O)O)c2cc(F)ccc2/C1=C\c1ccc(Oc2ccc(Cl)cc2)cc1Cl [C59, (Z)-2-(1-(2-Chloro-4-(4-chlorophenoxy)benzylidene)-5-fluoro-2-methyl-1H-inden-3-yl)acetic acid]",≥ 50,≥ 50,≥ 50,≥ 50,≥ 50,≥ 50,< 30,≥ 50,< 30,< 30,< 30,≥ 50,30 to 50,≥ 50,–,–,–,–,–,–,–
"CC1=C(CC(=O)O)c2cc(F)ccc2/C1=C\c1ccc(C(=O)c2ccccc2)cc1 [C307, (Z)-2-(1-(4-Benzoylbenzylidene)-5-fluoro-2-methyl-1H-inden-3-yl)acetic acid]",< 30,≥ 50,30 to 50,≥ 50,30 to 50,≥ 50,< 30,≥ 50,30 to 50,≥ 50,< 30,≥ 50,< 30,≥ 50,–,–,–,–,–,–,–
"CC1=C(CC(=O)O)c2cc(I)ccc2/C1=C/c1ccc(COCc2ccc(F)cc2)cc1 [E18, (E)-2-(1-(4-(((4-Fluorobenzyl)oxy)methyl)benzylidene)-5-iodo-2-methyl-1H-inden-3-yl)acetic acid]",≥ 50,≥ 50,≥ 50,≥ 50,< 30,≥ 50,30 to 50,≥ 50,< 30,≥ 50,< 30,≥ 50,< 30,≥ 50,≥ 50,≥ 50,≥ 50,≥ 50,≥ 50,≥ 50,inhibition at 30 µM [7]: ≥ 50%
